In US20230114728A1 (Venatorx Pharmaceuticals, Inc., priority 2019, published 2023):
≈ marks a conversion by molar mass, not a printed value.

Legend:
P. aeruginosa PBP3 = target: T1, P. aeruginosa PBP3 (Pseudomonas aeruginosa, UniProt G3XD46); test: Bocillin-FL fluorescence polarization competition binding assay, P. aeruginosa PBP3; details: fluorescence polarization competition binding assay using Bocillin-FL
T1 construct: made in house
Method in brief: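 Inhibitor competition with Bocillin-FL for P. aeruginosa PBP3 was followed by fluorescence polarization on a Cytation3 (BioTek) reader, using g-factor 0.96, 490 nm excitation and 520 nm emission. The enzyme was at 0.75 μM and the probe at 0.1 μM in Hepes/NaCl/glycerol buffer, 80 μl per well. FP was recorded immediately after probe addition for up to 60 minutes. Potency was expressed as EC50, the concentration that reduces bound probe by 50%.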

E. coli D22 = test: Broth microdilution MIC in CAMHB; format: cell-based; details: Escherichia coli; E. coli D22 (hyper-permeable); MHB; read-out: Minimum Inhibitory Concentration, E. coli D22
Method in brief: (§1)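 Hyper-permeable or efflux-deficient strains serve to probe outer-membrane penetration. Growth inhibition is scored visually after 16-20 h at 37° C in CAMHB, starting from 2-8×10^5 CFU/mL.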

[1] = tested on: K. pneumoniae 848844 producing SHV-11 and KPC-2; test: Broth microdilution MIC in CAMHB; format: cell-based; details: Klebsiella pneumoniae, read-out: Minimum Inhibitory Concentration, K. pneumoniae 848844
Method in brief: as §1

E. coli 901C = test: Broth microdilution MIC in CAMHB; format: cell-based; details: Escherichia coli; E. coli 901C (hyper-permeable); MHB; read-out: Minimum Inhibitory Concentration, E. coli 901C
Method in brief: as §1

P. aeruginosa ATCC 35151 = test: Broth microdilution MIC in CAMHB; format: cell-based; details: Pseudomonas aeruginosa, ATCC35151; MHB; hyper-permeable strain; read-out: Minimum Inhibitory Concentration, P. aeruginosa ATCC 35151
Method in brief: as §1

T1 sequence (G3XD46 whole entry): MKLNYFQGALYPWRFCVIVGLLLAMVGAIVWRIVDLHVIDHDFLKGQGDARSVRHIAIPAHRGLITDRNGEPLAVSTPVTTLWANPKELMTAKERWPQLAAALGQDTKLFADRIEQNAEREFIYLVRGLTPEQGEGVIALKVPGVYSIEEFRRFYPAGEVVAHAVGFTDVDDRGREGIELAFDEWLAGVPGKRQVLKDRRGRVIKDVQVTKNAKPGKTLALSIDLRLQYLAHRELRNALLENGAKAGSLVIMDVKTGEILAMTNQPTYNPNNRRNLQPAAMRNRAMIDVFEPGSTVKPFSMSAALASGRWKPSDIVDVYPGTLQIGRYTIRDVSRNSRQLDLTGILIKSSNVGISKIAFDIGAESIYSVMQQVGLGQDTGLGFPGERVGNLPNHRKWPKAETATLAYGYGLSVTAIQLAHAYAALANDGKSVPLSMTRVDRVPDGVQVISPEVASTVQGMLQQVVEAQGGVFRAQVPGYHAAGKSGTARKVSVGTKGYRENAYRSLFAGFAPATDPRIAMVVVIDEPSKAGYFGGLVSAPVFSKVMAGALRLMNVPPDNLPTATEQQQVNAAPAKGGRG

Structure (SMILES)	P. aeruginosa PBP3 Potency (P. aeruginosa PBP3)	MIC (E. coli D22)	MIC [1]	MIC (E. coli 901C)	MIC (P. aeruginosa ATCC 35151)
CCN1CCN(C(=O)NC(C(=O)N[C@H]2Cc3cccc(C(=O)O)c3OB2O)c2ccc(O)c(Cl)c2F)C(=O)C1=O (stereo partly drawn) [Example 185, (3R)-3-(2-(3-chloro-2-fluoro-4-hydroxyphenyl)-2-(4-ethyl-2,3-dioxopiperazine-1-carboxamido)acetamido)-2-hydroxy-3,4-dihydro-2H-benzo[e][1,2]oxaborinine-8-carboxylic acid]	D (D represents a potency <10 μM)	2 to 4 µg/mL (≈ 3.47 to 6.94 µM)	> 128 µg/mL	< 0.25 µg/mL	0.5 to 1 µg/mL (≈ 0.867 to 1.73 µM)
NCCCN1CCN(C(=O)NC(C(=O)N[C@H]2Cc3cccc(C(=O)O)c3OB2O)c2c(F)cc(O)cc2F)C(=O)C1=O (stereo partly drawn) [Example 183, (3R)-3-(2-(4-(3-aminopropyl)-2,3-dioxopiperazine-1-carboxamido)-2-(2,6-difluoro-4-hydroxyphenyl)acetamido)-2-hydroxy-3,4-dihydro-2H-benzo[e][1,2]oxaborinine-8-carboxylic acid]	D (D represents a potency <10 μM)	2 to 4 µg/mL (≈ 3.39 to 6.79 µM)	32 to 64 µg/mL (≈ 54.3 to 109 µM)	0.5 to 1 µg/mL (≈ 0.848 to 1.7 µM)	2 to 4 µg/mL (≈ 3.39 to 6.79 µM)
NCCN1CCN(C(=O)N[C@H](C(=O)N[C@H]2Cc3cccc(C(=O)O)c3OB2O)c2ccc(O)c([N+](=O)[O-])c2)C(=O)C1=O (single isomer, unassigned) [Example 200]	C (C represents a potency between 10 and 30 μM)	> 128 µg/mL	> 128 µg/mL	8 to 16 µg/mL (≈ 13.7 to 27.4 µM)	2 to 4 µg/mL (≈ 3.42 to 6.85 µM)
CCN1CCN(C(=O)NC(C(=O)N[C@H]2Cc3cccc(C(=O)O)c3OB2O)c2ccc(C(=O)O)c(Cl)c2Cl)C(=O)C1=O (stereo partly drawn) [Example 201, (3R)-3-(2-(4-carboxy-2,3-dichlorophenyl)-2-(4-ethyl-2,3-dioxopiperazine-1-carboxamido)acetamido)-2-hydroxy-3,4-dihydro-2H-benzo[e][1,2]oxaborinine-8-carboxylic acid]	D (D represents a potency <10 μM)	2 to 4 µg/mL (≈ 3.22 to 6.44 µM)	> 128 µg/mL	0.5 to 1 µg/mL (≈ 0.805 to 1.61 µM)	0.5 to 1 µg/mL (≈ 0.805 to 1.61 µM)
CCN1CCN(C(=O)N[C@@H](C(=O)N[C@H]2Cc3cccc(C(=O)O)c3OB2O)c2ccc(C(=O)O)c(F)c2Cl)C(=O)C1=O (single isomer, unassigned) [Example 203]	D (D represents a potency <10 μM)	2 to 4 µg/mL (≈ 3.31 to 6.61 µM)	> 128 µg/mL	< 0.25 µg/mL	0.5 to 1 µg/mL (≈ 0.827 to 1.65 µM)
CS(=O)(=O)N1CCN(C(=O)N[C@@H](C(=O)N[C@H]2Cc3ccc(F)c(C(=O)O)c3OB2O)c2cc(F)c(O)c(O)c2Cl)C1=O (single isomer, unassigned) [Example 189]	D (D represents a potency <10 μM)	0.5 to 1 µg/mL (≈ 0.79 to 1.58 µM)	2 to 4 µg/mL (≈ 3.16 to 6.32 µM)	0.5 to 1 µg/mL (≈ 0.79 to 1.58 µM)	0.5 to 1 µg/mL (≈ 0.79 to 1.58 µM)
